1 compound from patent publication US20030215397A1, “Method of treatment of skin diseases related to microbial antigens in the skin” (priority 2002, published 2003) can be followed below.

Experiment [1] concerns streptococcal antigen (Dnase-B) in the skin. The experiment is described as follows: LSAB stain (antibody to Streptozyme) of a biopsy from the treated psoriatic lesion site. Particulars: person with severe psoriasis; pump spray with 40% by weight isopropyl myristate in alcohol carrier, on one lesion twice a day for two weeks; stain positive before treatment. It is filed as in vivo, streptococci. The procedure: Anti-body levels of many such patients, to streptococcal exoenzymes, deoxyribonuclease B, hyaluronidase, streptolysin O, and Streptozyme (a commercial product made from streptococci and containing Dnase-B as one of its constituents., a registered trademark of Carter-Wallace, Inc. and available from Wampole Labs, of Cranbury, N.J.), when measured will be found to be elevated prior to the treatment in accordance with this invention. The presence of these antigens are tested for by using a primary rabbit polyclonal antibody to, e.g., Streptozyme® with a linked streptavidin biotin alkaline phosphatase (“LSAB”) amplification stain, available from Dako, of Carpinteria, Calif. A prominent red stain on the biopsied skin indicates the presence of the antigens.
A person, suffering from severe psoriasis came for treatment. Their psoriasis had become severe at a time about 20 years earlier when they had recurring sore throats and tonsilitis. Their sore throats had ceased, but their psoriasis persisted. A blood sample was taken to measure […] antibody level to Dnase-B, a streptococcal exoenzyme; It was determined that they were a streptococcal carrier. A 4 mm punch biopsy was taken at the same time from a psoriatic plaque on their posterior thigh. The biopsy was first exposed to an antibody to Streptozyme®, and stained using the LSAB test. […]

The subject of a further experiment is psoriatic lesion. In words: Topical treatment of a psoriatic lesion in a patient, appearance of the lesion. It is filed as in vivo, human. To be noted: person with severe psoriasis; pump spray with 40% by weight isopropyl myristate in alcohol carrier, on one lesion twice a day for two weeks. The procedure: A person, suffering from severe psoriasis came for treatment. Their psoriasis had become severe at a time about 20 years earlier when they had recurring sore throats and tonsilitis. Their sore throats had ceased, but their psoriasis persisted. A blood sample was taken to measure […] antibody level to Dnase-B, a streptococcal exoenzyme; It was determined that they were a streptococcal carrier. A 4 mm punch biopsy was taken at the same time from a psoriatic plaque on their posterior thigh. The biopsy was first exposed to an antibody to Streptozyme®, and stained using the LSAB test.
The patient was provided with a pump spray bottle containing 40% by weight of isopropyl myristate in an alcohol carrier, and instructed to spray the liquid on one particular lesion twice a day for two weeks. […] That site was biopsied and given the LSAB test, as before. The stain was negative, indicating the cleansing of the streptococcal antigen from the skin that had been treated with the 40% isopropyl myristate spray, and it was accompanied by a clearing of the lesion.
The composition in each case is liberally applied and the patient otherwise is permitted to carry out the usual hygiene, showering or bathing. […]

As for `CCCCCCCCCCCCCC(=O)OC(C)C` [isopropyl myristate], the “LSAB stain for streptococcal antigen in the biopsied treated site” value in experiment [1] is on record as “negative”. The “clearing of the sprayed lesion” value in the experiment on psoriatic lesion is recorded as “substantially clear of the disease”.
